Experimental data reported in patent US20060024691A1, “Novel pathways in the etiology of cancer” (Buck Institute for Age Research, priority 2004, published 2006).

How the values were obtained:
Type in all cases: cell-based, human
[1] = test system: NF-κB p50; assay: Nuclear translocation of NF-κB p50 in MCF-7 cultures; settings: 10 μM, 30 min
[2] = test system: IκBα; assay: Immunoblot of cytoplasmic IκBα in MCF-7 cells; settings: MCF-7, menadione 100 μM × 30 min
Method: (§1) PS-341 was kindly provided by Millennium Pharmaceuticals Inc. (Cambridge, Mass.). […] For assessment of combined treatment effects on cell viability, 2×10^4 cells (MCF-7, MCF-7/HER2, BT474) grown in 24-well plates were first treated with tamoxifen (dissolved in ethanol) and/or parthenolide (dissolved in DMSO); for the combination treatment pathenolide was added 4 h before addition of tamoxifen. Cell viability was measured 18 h after tamoxifen treatment using the sulforhodamine B (SRB) assay (Skehan, et al. 1990). Briefly, cells fixed with trichloroacetic acid were stained for 30 min with 0.4% SRB dissolved in 1% acetic acid. Unbound dye was removed by four washes with 1% acetic acid, and protein-bound dye was extracted with 10 mM unbuffered Tris base [tris(hydroxymethyl)aminomethane] for determination of optical density at 564 nm.
Fractionation of control and treated cells into cytoplasmic and nuclear extracts was performed as previously described (Dignam et al., 1983), with minor modification. Cells harvested on ice were washed twice with cold PBS, scraped and resuspended in 1.0 ml hypotonic buffer (20 mM HEPES, pH 7.0; 10 mM KCl; 1 mM MgCl2; 0.1% Triton X-100; 20% glycerol; 0.5 mM DTT) containing a cocktail of protease inhibitors (Mini CompleteTM protease inhibitors, Roche Diagnostics, Mannheim, Germany). […]

[3] = test system: p50 and p65 NFκB subunits; assay: Immunoblot of nuclear p50 and p65 NFκB subunits in MCF-7 cells; settings: MCF-7, menadione 100 μM × 30 min
Method: as §1
Fractionation of control and treated cells into cytoplasmic and nuclear extracts was performed as previously described (Dignam et al., 1983), with minor modification. Cells harvested on ice were washed twice with cold PBS, scraped and resuspended in 1.0 ml hypotonic buffer (20 mM HEPES, pH 7.0; 10 mM KCl; 1 mM MgCl2; 0.1% Triton X-100; 20% glycerol; 0.5 mM DTT) containing a cocktail of protease inhibitors (Mini CompleteTM protease inhibitors, Roche Diagnostics, Mannheim, Germany). The harvested cells were Dounce homogenized on ice, the mixture centrifuged at 3,000 rpm at 4° C. (5 min), and the cytoplasmic fraction separated from the nuclear pellet which was resuspended in elution buffer (20 mM HEPES, pH 7.0; 10 mM KCl; 1 mM MgCl2; 0.42 M NaCl; 0.1% Triton X-100; 20% glycerol; 0.5 mM DTT), supplemented with protease inhibitors. After 20 min at 4° C. the buffered mixture was centrifuged at 14,000 rpm at 4° C. (10 min) to obtain solubilized nuclear extracts which were then stored in aliquots at −80° C. after protein determination (Bradford; BioRad, Hercules, Calif.) and for subsequent NFkB DNA-binding assays.
Antibodies against p50 NFκB, p65 NFκB, IκB, and β-actin proteins were commercially obtained (Santa Cruz Biotechnology, Santa Cruz, Calif.; and Abcam Inc., Cambridge, Mass.). […]; 4% SDS; 20% glycerol; and 10% 2-mercaptoethanol) and resolved by electrophoresis in 4-12% Bis-Tris SDS gradient gels in morpholinepropane sulfonic acid (MOPS) buffer. Separated proteins were transferred onto polyvinylidene difluoride membranes (Millipore Co., Billerica, Mass.), blocked with 5% non-fat milk in PBS containing 0.1% Tween-20, and membranes immunoblotted with the indicated antibodies in blocking solution. […]

[4] = test system: ERK1/ERK2; assay: MAPK activation: ERK1/ERK2 phosphorylation, Western blot; settings: MCF7 cells, 30 minutes
Method: Human breast cancer cell lines MCF7 and T47D were obtained from the American Type Culture Collection (ATCC). MCF7 cells were maintained in Dulbecco's Modification of Eagle's Medium (Cellgro) supplemented with 10% fetal bovine serum (Cellgro), 1% penicillin/streptomycin (Cellgro) and 10 μg/ml insulin (Sigma). T47D cells were maintained in RPMI (Cellgro) supplemented with 10% fetal bovine serum, 1% penicillin/streptomycin and 10 μg/ml insulin. Treatment conditions for both cell lines involved plating ˜1×10^6 cells in normal media onto 10 cm dishes, attachment and growth for 24 hours followed by a change to estrogen-free culture conditions (phenol red-free DME H-16 supplemented with 10% charcoal stripped serum, 1% penicillin/streptomycin and 10 μg/ml insulin) for an additional 24 hours. Cells were then treated as indicated for 30 minutes before extract preparation. Indicated conditions involved 30 minute pretreatments.
For preparation of high-salt nuclear extracts (nucleoplasm), isolated nuclei were resuspended for 20 minutes in ice cold extraction buffer (0.4 M NaCl, 25 mM Tris pH 7.5, 1 mM DTT, 20% glycerol, 10 mM NaFl and min-complete protease inhibitors (Roche)) followed by a 4° C. centrifugation at 16,000×g for 15 minutes.
Membranes were then blocked for 30 minutes in blocking buffer (150 mM NaCl, 20 mM Tris pH 7.5, 0.3% Tween-20 and 4% Nonfat dry milk powerby weight).

## CC1=CC(=O)c2ccccc2C1=O [menadione, 2-methyl-1,4-naphthoquinone]
[1]
  increase in nuclear translocation of NF-κB p50 vs control treated cells: > 3 fold
[2]
  cytoplasmic levels of IκBα after menadione treatment: reduced
[3]
  nuclear NFκB subunits p50 and p65 after menadione treatment: increases in the nuclear NFκB subunits, p50 and p65
[4]
  ERK1/ERK2 phosphorylation induced by treatment: high level of ERK1/ERK2 phosphorylation
